# Reference: US9434711B2 (Janssen Pharmaceutica, NV, priority 2007, dated 2016)
# Assays:
# [1] = target: T1, canine TRPM8 (Canis lupus familiaris, UniProt Q1A7N1); experiment: In Vitro Canine TRPM8 Functional Assay (Ca2+ fluorescence, icilin activation); type: cell-based; conditions: for IC50: HEK293 cells stably expressing canine TRPM8, icilin activation, eight-point dose-response, read-out: IC50; for inhibition at 0.5 µM: compound at 0.5 μM, read-out: % Inh @ 0.5; for inhibition at 0.5 µM / inhibition at 0.2 µM / % Inh @ 0.2 (μM): canine TRPM8, icilin activation; for inhibition at 0.2 µM / % Inh @ 0.2 (μM): compound at 0.2 μM; for inhibition at 0.2 µM: read-out: % Inh @ 0.2
# How it was run: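 Canine TRPM8 stably expressed in HEK293; compound added 5 min before icilin challenge (~80% max response), with fluorescent Ca2+ signal tracked throughout.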
# [2] = system: Male Sprague Dawley rats; experiment: Reversal of Icilin-Induced Behaviors in Rats; type: in vivo; conditions: Rattus norvegicus, po, 1 h, 30 mg/kg p.o., 1 h post-icilin
# Procedure: Male Sprague Dawley rats (225-450 g, Charles River Labs, n=4-6/treatment) were used to evaluate the ability of selected compounds of the formula (I) to reverse icilin-induced “wet-dog” shakes. Icilin was administered in PEG-400 or 10% solutol/H2O, at 1.0 or 3.0 mg/kg, i.p. and spontaneous “wet-dog” shakes (WDS) were counted 10-20 minutes post-icilin. […] Results are presented as a percent inhibition of shakes, which was calculated as [1-(test compound WDS count/vehicle WDS count)]×100.
# [3] = system: Male Sprague Dawley rats; experiment: Inhibition of Icilin-Induced "Wet-Dog" Shakes in Rats; type: in vivo, rat; conditions: Na salt form; for ED50: Rattus norvegicus, po
# Procedure: Male Sprague Dawley rats (220-450 g, Charles River Labs, n=6-9/treatment) were used to evaluate the ability of selected compounds of the formula (I) to block icilin-induced “wet-dog” shakes (WDS). Compounds of the formula (I) were administered in an appropriate vehicle, such as hydroxypropyl-β-cyclodextrin (HPβCD), methocellulose, 10% Solutol, or H2O, or the like, by the appropriate route, i.p. or p.o., 30-120 minutes before icilin. Icilin was administered in PEG-400 or 10% solutol/H2O, at 1.0 or 3.0 mg/kg, i.p. and spontaneous “wet-dog” shakes were counted 10-20 minutes post-icilin. Results are presented as a percent inhibition of shakes, which was calculated as [1-(test compound WDS count/vehicle WDS count)]×100.
# [4] = system: Male Sprague Dawley rats; experiment: Chronic Constriction Injury (CCI)-Induced Model of Neuropathic Pain, Acetone-Induced Hypersensitivity; type: in vivo, rat; conditions: Na salt form; for inhibition in vivo at 30 mg/kg / Percent Inhibition: 30 mg/kg p.o.
# Text: Male Sprague Dawley rats (225-450 g; n=5-8/treatment) were used to evaluate the ability of selected compounds of the formula (I) to reverse CCI-induced cold hypersensitivity. Four loose ligatures of 4-0 chromic gut were surgically placed around the left sciatic nerve under inhalation anesthesia as described by Bennett et al (Bennett G J, Xie Y K. Pain 1988, 33(1): 87-107). Fourteen to 35 days following CCI surgery, subjects were placed in elevated observation chambers containing wire mesh floors and five applications of acetone (0.05 mL/application separated by approximately 5 minutes) were spritzed onto the plantar surface of the paw using a multidose syringe. An abrupt withdrawal or lifting of the paw was considered a positive response. The number of positive responses was recorded for each rat over the five trials. Following baseline withdrawal determinations, compounds of formula (I) are administered in an appropriate vehicle, such as hydroxypropyl-β-cyclodextrin (HP β CD), methylcellulose, Methocel, 10% Solutol, or H2O, or the like, by the appropriate route, i.p. or p.o. […] Results are presented as a percent inhibition of […], which was calculated for each subject as [1−(test compound withdrawals/pre-test withdrawals)]×100 and then averaged by treatment.
# [5] = target: T1, canine TRPM8; experiment: TRPM8 Patch Clamp Assays (whole-cell, menthol or cold activation); type: cell-based; conditions: cold stimulation
# Procedure: For patch clamp experiments, HEK293 cells are stably transfected with canine TRPM8 and cultured in DMEM supplemented with 10% fetal bovine serum, 100 units/ml penicillin, 100 μg/ml streptomycin and 1 mg/ml G418. Cells are maintained at 37° C. and in 5% CO2.
# The extracellular solution contains (in mM): NaCl, 132; EGTA, 1; KCl, 5.4; MgCl2, 0.8; HEPES, 10; glucose, 10; pH=7.4. Recordings are performed using the conventional whole-cell patch clamp technique, 1-2 days after plating cells onto glass coverslips at densities appropriate for single cell recording. Currents are amplified by a patch clamp amplifier and filtered at 2 kHz (Axopatch 200B, Molecular Devices, Union City, Calif.). Menthol (100 μM) is applied to the cell at 0.5 ml/min via a gravity-fed perfusion system. Recordings involving menthol activation are performed at 22° C.
# In experiments where temperatures are varied, temperature ramps are generated by cooling the perfusate in an in-line cooler (Model SC-20, Warner Instruments, Hamden, Conn.) controlled by a temperature controller (Model CL-100, Warner Instruments). The temperature in the vicinity of the recorded cell is measured with a custom-made miniature thermo-microprobe connected to a monitoring thermometer (Model TH-8, Physitemp, Clifton, N.J.), and sampled using Digidata 1322A and pClamp 9.0 (Molecular Devices), as are the currents concurrently measured in the whole-cell patch clamp mode. The current is continuously sampled (at 100 Hz) at a holding potential of −60 mV.
# Compounds of the formula (I) are diluted from 10 mM DMSO stocks (stored at −20° C.) into an extracellular solution either containing 100 μM menthol or subjected to cooling. Increasing concentrations of a compound are applied to a cell in a cumulative manner and concentration-dependent responses are measured after steady-state activation is achieved by either 100 μM menthol or cooling to 10° C. A saturating concentration of a reference antagonist is applied at the end of an experiment (either in the presence of 100 μM menthol or 10° C. temperature) to establish the baseline from which all the other measurements are subtracted.
# Percentage inhibition by a compound is calculated as follows:
# 100×(1−Icomp/I0); where Icomp and I0 are steady-state current amplitudes in either the presence or absence of a concentration of compounds of the formula (I).
# [6] = 0.5 h, HPbCD, 30 min pre-icilin
# [7] = dose 30 p.o., HPbCD, 30 min pre-icilin
# [8] = dose 30 p.o., HPbCD, 60 min pre-icilin
# [9] = dose 10 p.o., HPbCD, 60 min pre-icilin
# T1 sequence (Q1A7N1 1-1104): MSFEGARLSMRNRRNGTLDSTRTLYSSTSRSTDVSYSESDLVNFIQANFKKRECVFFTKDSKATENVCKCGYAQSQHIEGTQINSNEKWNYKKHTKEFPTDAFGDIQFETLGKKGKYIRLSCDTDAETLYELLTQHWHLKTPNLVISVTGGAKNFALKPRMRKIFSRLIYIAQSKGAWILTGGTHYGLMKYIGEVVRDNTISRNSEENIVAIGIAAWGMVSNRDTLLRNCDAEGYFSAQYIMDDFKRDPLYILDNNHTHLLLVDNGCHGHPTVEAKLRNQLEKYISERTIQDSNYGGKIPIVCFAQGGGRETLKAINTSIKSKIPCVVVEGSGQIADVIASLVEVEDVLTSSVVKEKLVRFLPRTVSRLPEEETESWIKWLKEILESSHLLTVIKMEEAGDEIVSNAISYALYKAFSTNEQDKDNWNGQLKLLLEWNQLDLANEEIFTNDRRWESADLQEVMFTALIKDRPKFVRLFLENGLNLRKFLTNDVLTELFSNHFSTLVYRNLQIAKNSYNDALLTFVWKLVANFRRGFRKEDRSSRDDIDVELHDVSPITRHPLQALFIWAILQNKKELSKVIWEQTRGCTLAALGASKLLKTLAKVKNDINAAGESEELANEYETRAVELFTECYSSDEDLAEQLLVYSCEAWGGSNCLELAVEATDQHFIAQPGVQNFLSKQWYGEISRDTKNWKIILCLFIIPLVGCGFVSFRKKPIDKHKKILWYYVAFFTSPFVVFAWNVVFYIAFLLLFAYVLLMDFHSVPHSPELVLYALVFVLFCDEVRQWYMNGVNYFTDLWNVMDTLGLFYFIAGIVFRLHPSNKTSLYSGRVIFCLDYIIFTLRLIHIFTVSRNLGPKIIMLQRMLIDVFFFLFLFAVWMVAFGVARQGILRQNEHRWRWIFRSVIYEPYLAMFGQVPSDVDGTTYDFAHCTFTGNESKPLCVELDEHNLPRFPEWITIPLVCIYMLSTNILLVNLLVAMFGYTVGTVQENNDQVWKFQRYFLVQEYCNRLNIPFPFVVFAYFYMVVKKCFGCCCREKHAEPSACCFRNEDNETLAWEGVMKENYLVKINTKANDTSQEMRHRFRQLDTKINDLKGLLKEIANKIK
compound,measurement,setting,value
"Cc1c(N(Cc2ccc(F)c(F)c2)S(=O)(=O)c2cn(C)cn2)sc2ccccc12 [Compound 2, N-(3,4-Difluoro-benzyl)-N-(3-methyl-benzo[b]thiophen-2-yl)-1-methyl-1H-imidazole-4-sulfonamide]",IC50,[1],16.3 nM
same,inhibition at 0.5 µM,[1],99%
same,inhibition in vivo at 30 mg/kg,[2],18%
"Cc1c(N(Cc2ccc(OC(F)(F)F)cc2)S(=O)(=O)c2cccnc2)sc2ccccc12 [Compound 13, N-(3-Methyl-benzo[b]thiophen-2-yl)-N-(4-trifluoromethoxy-benzyl)-pyridine-3-sulfonamide]",IC50,[1],3 nM
same,inhibition at 0.5 µM,[1],97%
same,inhibition in vivo at 30 mg/kg,[2],28%
"O=C(O)c1ccc(S(=O)(=O)N(CCC(F)(F)F)c2sc3ccccc3c2Br)cc1 [Compound 271, N-(3-Bromo-benzo[b]thiophen-2-yl)-N-(3,3,3-trifluoro-propyl)-4-carboxy-benzenesulfonamide]",inhibition at 0.2 µM,[1],98%
same,ED50,"[3]; 0.5 h, Water, 30 min pre-icilin",5.7 mg/kg
same,inhibition in vivo at 10 mg/kg,"[4]; Rattus norvegicus, po, 1 h, 10 mg/kg p.o., HPbCD, pretreatment 1 hr, read-out: Percent Inhibition",24%
same,inhibition in vivo at 100 mg/kg,"[4]; Rattus norvegicus, po, 1 h, 100 mg/kg p.o., HPbCD, pretreatment 1 hr, read-out: Percent Inhibition",56%
"CCCCN(c1sc2ccccc2c1Br)S(=O)(=O)c1ccc(C(=O)O)cc1 [Compound 272, N-(3-Bromo-benzo[b]thiophen-2-yl)-N-(butyl)-4-carboxy-benzenesulfonamide]",IC50,[1],6.2 nM
same,inhibition at 0.2 µM,[1],97%
same,ED50,[3]; [6],22 mg/kg
same,inhibition in vivo at 30 mg/kg,"[4]; Rattus norvegicus, po, 1 h, HPbCD, pretreatment 1 hr, read-out: Percent Inhibition",31%
"O=C(O)c1ccc(S(=O)(=O)N(CC2CC2)c2sc3ccccc3c2Br)cc1 [Compound 273, N-(3-Bromo-benzo[b]thiophen-2-yl)-N-(cyclopropylmethyl)-4-carboxy-benzenesulfonamide]",IC50,[1],18 nM
same,inhibition at 0.2 µM,[1],96%
same,ED50,[3]; [6],53 mg/kg
same,inhibition in vivo at 30 mg/kg,"[4]; Rattus norvegicus, po, 0.5 h, HPbCD, pretreatment 0.5 hr, read-out: Percent Inhibition",49%
"CCS(=O)(=O)N(CCN1CCOCC1)c1sc2ccccc2c1C(C)O (stereo not drawn) [Compound 284, N-(3-(1-Hydroxyethyl)benzo[b]thiophen-2-yl)-N-(2-morpholinoethyl)-ethanesulfonamide]",inhibition at 0.2 µM,[1],15%
same,IC50,[5],8 nM
same,inhibition at 0.003 µM,[5]; 0.003 μM,24%
same,inhibition at 0.01 µM,[5]; 0.01 μM,71%
"O=C(O)c1ccc(S(=O)(=O)N(CCCCC(F)(F)F)c2sc3ccccc3c2Br)cc1 [Compound 395, N-(3-Bromo-benzo[b]thiophen-2-yl)-N-(5,5,5-trifluoro-pentyl)-4-carboxy-benzenesulfonamide]",IC50,[1],3 nM
same,inhibition at 0.2 µM,[1],101%
same,ED50,"[3]; 1 h, Water, 60 min pre-icilin",7.6 mg/kg
same,inhibition in vivo at 30 mg/kg,"[4]; Rattus norvegicus, po, 2 h, Water, pretreatment 2 hr, read-out: Percent Inhibition",23%
"CCCCN(c1sc2ccccc2c1C)S(=O)(=O)c1ccc(C(=O)[O-])cc1.[Na+] [Compound 398, Sodium, N-(Butyl)-N-(3-methylbenzo[b]thiophen-2-yl)-4-carboxy-benzenesulfonamide]",IC50,[1],6 nM
same,% Inh @ 0.2 (μM),[1],101%
same,% Inhibition,[3]; [7],7%
"Cc1c(N(CCC2CC2)S(=O)(=O)c2ccc(C(=O)[O-])cc2)sc2ccccc12.[Na+] [Compound 400, Sodium, N-(2-Cyclopropylethyl)-N-(3-methylbenzo[b]thiophen-2-yl)-4-carboxy-benzenesulfonamide]",IC50,[1],5 nM
same,% Inh @ 0.2 (μM),[1],102%
same,% Inhibition,[3]; [7],84%
same,Percent Inhibition,"[4]; Water, pretreatment 1 hr",40%
same,Percent Inhibition,"[4]; Water, pretreatment 3 hr",25%
"Cc1c(N(CCC(F)(F)F)S(=O)(=O)c2ccc(C(=O)[O-])cc2)sc2ccccc12.[Na+] [Compound 409, Sodium, N-(3-Methylbenzo[b]thiophen-2-yl)-N-(3,3,3-trifluoro-propyl)-4-carboxy-benzenesulfonamide]",IC50,[1],10 nM
same,% Inh @ 0.2 (μM),[1],101%
same,% Inhibition,[3]; [7],16%
O=S(=O)(c1ccc(-c2nnn[nH]2)cc1)N(CCCC(F)(F)F)c1sc2ccccc2c1Br [Compound 429],IC50,[1],17 nM
same,% Inh @ 0.2 (μM),[1],93%
same,% Inhibition,[3]; [7],41%
same,% Inhibition,[3]; [8],36%
O=C(O)c1ccc(S(=O)(=O)N(CCC2CC2)c2sc3ccccc3c2Cl)cc1 [Compound 479],IC50,[1],8 nM
same,% Inh @ 0.2 (μM),[1],100%
same,% Inhibition,[3]; [8],77%
"CC(C)(O)c1c(N(CCC(F)(F)F)S(=O)(=O)c2ccc(C(=O)[O-])cc2)sc2ccccc12.[Na+] [Compound 505, Sodium, N-(3-(1-Hydroxy-1-methyl-ethyl)-benzo[b]thiophen-2-yl)-N-(3,3,3-trifluoro-propyl)-4-carboxy-benzenesulfonamide]",IC50,[1],24 nM
same,% Inh @ 0.2 (μM),[1],98%
same,% Inhibition,[3]; [8],72%
same,Percent Inhibition,"[4]; HPbCD, pretreatment 1 hr",11%
"CC(C)(O)c1c(N(CCC2CC2)S(=O)(=O)c2ccc(C(=O)[O-])cc2)sc2ccccc12.[Na+] [Compound 657, Sodium, N-(2-Cyclopropyl-ethyl)-N-(3-(1-hydroxy-1-methyl-ethyl)-benzo[b]thiophen-2-yl)-4-carboxy-benzenesulfonamide]",IC50,[1],7.5 nM
same,% Inh @ 0.2 (μM),[1],101%
same,% Inhibition,[3]; [9],32%
"CC(C)(O)c1c(N(CCCCC(F)(F)F)S(=O)(=O)c2ccc(C(=O)[O-])cc2)sc2ccccc12.[Na+] [Compound 658, Sodium, N-(3-(1-Hydroxy-1-methyl-ethyl)-benzo[b]thiophen-2-yl)-N-(5,5,5-trifluoro-pentyl)-4-carboxy-benzenesulfonamide]",IC50,[1],4.3 nM
same,% Inh @ 0.2 (μM),[1],101%
same,% Inhibition,[3]; [9],63%
